Laboratory results published in patent US20080132538A1, “Pharmaceutical uses for fluoroalkoxybenzylamino derivatives of nitrogen containing heterocycles” (Pfizer Inc, priority 2000, published 2008).

Tested on: not given
Details: not given

SMILES | melting point
CC(C)(C)c1ccc(OC(F)F)c(CN[C@H]2CCCN[C@H]2c2ccccc2)c1.Cl | 263 to 264 °C (dec.)
CC(C)Oc1ccc(OC(F)(F)F)cc1CN[C@H]1CCCN[C@H]1c1ccccc1.Cl | 245 to 246 °C (dec.)
CN(C)c1ccc(OCC(F)(F)F)c(CN[C@H]2CCCN[C@H]2c2ccccc2)c1.Cl | 250 to 252 °C
CCOc1ccc(OC(F)(F)F)cc1CN[C@H]1CCCN[C@H]1c1ccccc1.Cl | > 275 °C (dec.)
CC(=O)Nc1ccc(OCC(F)(F)F)c(CN[C@H]2CCCN[C@H]2c2ccccc2)c1.Cl | > 270 °C
CC(C)(C)c1ccc(OC(F)(F)F)c(CN[C@H]2CCCN[C@H]2c2ccccc2)c1.Cl | 262 to 264 °C
Cl.FC(F)(F)Oc1ccccc1CN[C@H]1CCCN[C@H]1c1ccccc1 | 231 to 233 °C
Cc1ccc(OC(F)F)c(CN[C@H]2CCCN[C@H]2c2ccccc2)c1.Cl | > 275 °C
CC(C)c1ccc(OCC(F)(F)F)c(CN[C@H]2CCCN[C@H]2c2ccccc2)c1.Cl | > 280 °C
Cl.FC(F)Oc1ccc(OC(F)F)c(CN[C@H]2CCCN[C@H]2c2ccccc2)c1 | 238 to 239 °C
CC(C)c1ccc(OC(F)F)c(CN[C@H]2CCCN[C@H]2c2ccccc2)c1.Cl | 245 to 247 °C (dec.)

Tested on: CCR5 receptors
Details: Proc. Nat'l. Acad. Sci., 98 (7), p3970; cited from earlier work

SMILES | effect on CCR5 receptors
COc1ccccc1CN[C@H]1C2CCN(CC2)[C@H]1C(c1ccccc1)c1ccccc1 [CP-96,345] | down regulates CCR5 receptors
